Laboratory results reported in patent US20250374919A1, “AQUEOUS SUSPENSION AGROCHEMICAL COMPOSITION CONTAINING NATURAL RUBBER” (SUMITOMO CHEMICAL COMPANY, LIMITED, priority 2022, published 2025).

Test: Water solubility of agrochemical active ingredient at 20° C.
Assay type: physicochemical

| Molecule | water solubility at 20° C. [ppm] |
| --- | --- |
| Cc1nnc(Cl)c(-c2c(F)cccc2F)c1-c1ccccc1 [Pyridachlometyl] | 0.8 |
| Inpyrfluxam | 16.4 |
